Data on two molecules can be found in patent US20240174624A1, “CHIRAL N-(1,3,4-OXADIAZOLE-2-YL)PHENYL CARBOXYLIC ACID AMIDES AND THEIR USE AS HERBICIDES” (Bayer Aktiengesellschaft, priority 2021, published 2024).

Test [1] concerns TRZAS. The test can be described thus: Pre-emergence damage to crop plants. It is filed as in vivo, Triticum aestiva. The conditions noted are these: comparative experiment. From the text:
(§1) Seeds of monocotyledonous and dicotyledonous weed plants and crop plants are laid out in sandy loam soil in wood-fibre pots and covered with soil. The compounds of the invention, formulated in the form of wettable powders (WP) or as emulsion concentrates (EC), are then applied to the surface of the covering soil in the form of an aqueous suspension or emulsion at a water application rate equivalent to 600 to 800 l/ha, with addition of 0.2% wetting agent. After the treatment, the pots are placed in a greenhouse and kept under good growth conditions for the trial plants. The damage to the test plants is scored visually after a test period of 3 weeks by comparison with untreated controls (herbicidal activity in percent (%): 100% activity=the plants have died, 0% activity=like control plants). […] The tables below illustrate, in an illustrative manner, the post-emergence herbicidal action of the compounds of the invention, the herbicidal activity being stated in percent. In the experiments that follow, the herbicidal action of the compounds of the invention and that of the corresponding known racemic compounds closest from WO2012126932 and WO2018202535 were compared under the above-specified conditions by the pre-emergence and post-emergence method. The example numbers given in the tables relate to the compounds disclosed in the respective documents.

Another test deals with ZEAMX. The test can be described thus: Pre-emergence damage to crop plants. It is filed as in vivo, Zea mays. The conditions noted are these: comparative experiment.
Text: as §1

For the next test, the system named is ORYZA. Nature of the test: Post-emergence damage to crop plants. It is filed as in vivo, Oryza sativa. Particulars: 5 g a.i./ha, comparative experiment. Here is the method: (§2) Seeds of monocotyledonous and dicotyledonous weed and crop plants are laid out in sandy loam soil in wood-fibre pots, covered with soil and cultivated in a greenhouse under good growth conditions. 2 to 3 weeks after sowing, the test plants are treated at the one-leaf stage. The compounds of the invention, formulated in the form of wettable powders (WP) or as emulsion concentrates (EC), are then sprayed onto the green parts of the plants in the form of an aqueous suspension or emulsion at a water application rate equating to 600 to 800 l/ha, with addition of 0.2% wetting agent. After the test plants have been left to stand in the greenhouse under optimal growth conditions for about 3 weeks, the action of the preparations is assessed visually in comparison to untreated controls (herbicidal action in percent (%): 100% activity=the plants have died, 0% activity=like control plants). […] The tables below illustrate, in an illustrative manner, the post-emergence herbicidal action of the compounds of the invention, the herbicidal activity being stated in percent. In the experiments that follow, the herbicidal action of the compounds of the invention and that of the corresponding known racemic compounds closest from WO2012126932 and WO2018202535 were compared under the above-specified conditions by the pre-emergence and post-emergence method. The example numbers given in the tables relate to the compounds disclosed in the respective documents.

For another test, the system named is GLXMA. The test can be described thus: Pre-emergence damage to crop plants. The conditions noted are these: 80 g a.i./ha, comparative experiment. It is filed as in vivo, Glycine max.
Text: as §1

Another test concerns BRSNW. Nature of the test: Pre-emergence damage to crop plants. The class given is in vivo, Brassica napus. The conditions noted are these: 20 g a.i./ha, comparative experiment.
Text: as §1

For test [2], the system named is TRZAS. Nature of the test: Post-emergence damage to crop plants. The class given is in vivo, Triticum aestiva. Particulars: comparative experiment. Here is the method:
as §2

The next test concerns AVEFA. The test can be described thus: Pre-emergence herbicidal action. The class given is in vivo, Avena fatua. The conditions noted are these: 80 g/ha, scored after 3 weeks.
Text: as §1

In another test the test system is ALOMY. Nature of the test: Pre-emergence herbicidal action. It is filed as in vivo, Alopecurus myosuroides. The conditions noted are these: 80 g/ha, scored after 3 weeks.
Text: as §1

In test [3] the test system is MATIN. Nature of the test: Post-emergence herbicidal action. The class given is in vivo, Matricaria inodora. The conditions noted are these: assessed after about 3 weeks. Here is the method:
as §2, with “percent.” for “percent. In the experiments that follow, the herbicidal action of the compounds of the invention and that of the corresponding known racemic compounds closest from WO2012126932 and WO2018202535 were compared under the above-specified conditions by the pre-emergence and post-emergence method. The example numbers given in the tables relate to the compounds disclosed in the respective documents.”

For test [4], the system named is POLCO. The test can be described thus: Post-emergence herbicidal action. It is filed as in vivo, Polygonum convolvulus. The conditions noted are these: 20 g/ha, assessed after about 3 weeks. The method, then:
as §2, with “percent.” for “percent. In the experiments that follow, the herbicidal action of the compounds of the invention and that of the corresponding known racemic compounds closest from WO2012126932 and WO2018202535 were compared under the above-specified conditions by the pre-emergence and post-emergence method. The example numbers given in the tables relate to the compounds disclosed in the respective documents.”

The test system of test [5] is VERPE. The test can be described thus: Post-emergence herbicidal action. It is filed as in vivo, Veronica persica. The conditions noted are these: assessed after about 3 weeks. The method, then: as §2
Test [6] deals with ECHCG. The test can be described thus: Pre-emergence herbicidal action. It is filed as in vivo, Echinochloa crus-galli. Particulars: scored after 3 weeks.
Text: as §1, with “percent.” for “percent. In the experiments that follow, the herbicidal action of the compounds of the invention and that of the corresponding known racemic compounds closest from WO2012126932 and WO2018202535 were compared under the above-specified conditions by the pre-emergence and post-emergence method. The example numbers given in the tables relate to the compounds disclosed in the respective documents.”

Test [7] has as its system AMARE. Nature of the test: Pre-emergence herbicidal action. It is filed as in vivo, Amaranthus retroflexus. The conditions noted are these: scored after 3 weeks.
Text: as §1, with “percent.” for “percent. In the experiments that follow, the herbicidal action of the compounds of the invention and that of the corresponding known racemic compounds closest from WO2012126932 and WO2018202535 were compared under the above-specified conditions by the pre-emergence and post-emergence method. The example numbers given in the tables relate to the compounds disclosed in the respective documents.”

Test [8] has as its system POLCO. Nature of the test: Pre-emergence herbicidal action. Particulars: 80 g/ha, scored after 3 weeks. The class given is in vivo, Polygonum convolvulus.
Text: as §1

The test system of another test is PHBPU. Nature of the test: Post-emergence herbicidal action. The class given is in vivo, Pharbitis purpurea. Particulars: 20 g/ha, assessed after about 3 weeks. The method, then:
as §2, with “percent.” for “percent. In the experiments that follow, the herbicidal action of the compounds of the invention and that of the corresponding known racemic compounds closest from WO2012126932 and WO2018202535 were compared under the above-specified conditions by the pre-emergence and post-emergence method. The example numbers given in the tables relate to the compounds disclosed in the respective documents.”

For test [9], the system named is ECHCG. Nature of the test: Post-emergence herbicidal action. The conditions noted are these: for Post-emergence action against ECHCG: assessed after about 3 weeks. The class given is in vivo, Echinochloa crus-galli. The method, then: as §2
The subject of test [10] is SETVI. Nature of the test: Post-emergence herbicidal action. It is filed as in vivo, Setaria viridis. Particulars: assessed after about 3 weeks. Here is the method:
as §2

A further test relates to LOLRI. Nature of the test: Pre-emergence herbicidal action. The class given is in vivo, Lolium rigidum. The conditions noted are these: 80 g/ha, scored after 3 weeks.
Text: as §1

The test system of test [11] is VIOTR. Nature of the test: Pre-emergence herbicidal action. The conditions noted are these: scored after 3 weeks. It is filed as in vivo, Viola tricolor.
Text: as §1, with “percent.” for “percent. In the experiments that follow, the herbicidal action of the compounds of the invention and that of the corresponding known racemic compounds closest from WO2012126932 and WO2018202535 were compared under the above-specified conditions by the pre-emergence and post-emergence method. The example numbers given in the tables relate to the compounds disclosed in the respective documents.”

For test [12], the system named is AMARE. Nature of the test: Post-emergence herbicidal action. It is filed as in vivo, Amaranthus retroflexus. Particulars: assessed after about 3 weeks. Here is the method: as §2, with “percent.” for “percent. In the experiments that follow, the herbicidal action of the compounds of the invention and that of the corresponding known racemic compounds closest from WO2012126932 and WO2018202535 were compared under the above-specified conditions by the pre-emergence and post-emergence method. The example numbers given in the tables relate to the compounds disclosed in the respective documents.”

Test [13] has as its system MATIN. Nature of the test: Pre-emergence herbicidal action. It is filed as in vivo, Matricaria inodora. The conditions noted are these: scored after 3 weeks.
Text: as §1

Test [14] relates to VIOTR. Nature of the test: Post-emergence herbicidal action. The conditions noted are these: assessed after about 3 weeks. It is filed as in vivo, Viola tricolor. Here is the method:
as §2

The test system of test [15] is SETVI. Nature of the test: Pre-emergence herbicidal action. It is filed as in vivo, Setaria viridis. The conditions noted are these: scored after 3 weeks.
Text: as §1

Test [16] deals with VERPE. The test can be described thus: Pre-emergence herbicidal action. The conditions noted are these: scored after 3 weeks. The class given is in vivo, Veronica persica.
Text: as §1

Consider `Cc1c(C(=O)Nc2nnco2)ccc(C(F)(F)F)c1[S+](C)[O-]` (racemic) [1-144 from WO2012126932, 2-methyl-N-(1,3,4-oxadiazol-2-yl)-3-[(rac)-methylsulfinyl]-4-(trifluoromethyl)benzamide, reference compound], for which the “Damage to TRZAS” value is listed as 50% in the test on TRZAS [1] (20 g a.i./ha), 90% in the test on TRZAS [1] (80 g a.i./ha), 40% in the test on TRZAS [2] (5 g a.i./ha) and 50% in the test on TRZAS [2] (20 g a.i./ha). Further, the “Damage to ZEAMX” value with ZEAMX (20 g a.i./ha) is reported as 20%; in the test with ZEAMX (80 g a.i./ha), 30%. Besides, in the test on ORYZA, the “Damage to ORYZA” value worked out at 60%. Also, the “Damage to GLXMA” value with GLXMA is reported as 80%. The “Damage to BRSNW” value in the test with BRSNW worked out at 100%.
Take `C[S+]([O-])c1c(C(F)F)ccc(C(=O)Nc2nnco2)c1Cl` (stereo in doubt) [Example I-2, 2-chloro-N-(1,3,4-oxadiazol-2-yl)-3-[(S)-methylsulfinyl]-4-(difluoromethyl)benzamide]: the “Pre-emergence action against AVEFA” value in the test with AVEFA came out at 100%. For the same molecule, in the test with ALOMY, the “Pre-emergence action against ALOMY” value was 90%. The “Post-emergence action against MATIN” value with MATIN [3] (5 g/ha) and with MATIN [3] (20 g/ha) was 90% each time. The “Post-emergence action against POLCO” value with POLCO [4] amounted to 80%. Moreover, the “Damage to TRZAS” value in the test on TRZAS [1] (20 g a.i./ha) was found to be 20%; in the test on TRZAS [1] (80 g a.i./ha), 70%. In addition, the results for the “Post-emergence action against VERPE” value in the test on VERPE [5] (5 g/ha) and in the test on VERPE [5] (20 g/ha) were 90% and 100%, respectively. Besides, the “Pre-emergence action against ECHCG” value in the test on ECHCG [6] (20 g/ha) and in the test with ECHCG [6] (80 g/ha) was 100% in each case. Also, the “Pre-emergence action against AMARE” value in the test with AMARE [7] (20 g/ha) and with AMARE [7] (80 g/ha) was 100% throughout. Further, in the test with POLCO [8], the “Pre-emergence action against POLCO” value came out at 90%. Further, in the test on PHBPU, the “Post-emergence action against PHBPU” value worked out at 90%. Also, the “Damage to ORYZA” value in the test with ORYZA is reported as 0%. Moreover, the “Herbicidal action against ECHCG” value with ECHCG [9] (5 g a.i./ha, comparative experiment) is listed as 90%. Further, the “Post-emergence action against ECHCG” value in the test on ECHCG [9] (5 g/ha) and in the test on ECHCG [9] (20 g/ha) was 90% each time. Moreover, the “Post-emergence action against SETVI” value in the test on SETVI [10] (5 g/ha) and in the test on SETVI [10] (20 g/ha) was 90% throughout. Moreover, in the test on GLXMA, the “Damage to GLXMA” value is on record as 30%. In the test on LOLRI, the “Pre-emergence action against LOLRI” value came to 90%. In addition, the “Pre-emergence action against VIOTR” value with VIOTR [11] (20 g/ha) and in the test with VIOTR [11] (80 g/ha) was 100% in each case. The “Post-emergence action against AMARE” value in the test with AMARE [12] (5 g/ha) and in the test on AMARE [12] (20 g/ha) was 100% throughout. The “Pre-emergence action against MATIN” value in the test on MATIN [13] (20 g/ha) and in the test with MATIN [13] (80 g/ha) was 100% in each case. In addition, the “Post-emergence action against VIOTR” value was 90% with VIOTR [14] (5 g/ha) and 100% with VIOTR [14] (20 g/ha). The “Pre-emergence action against SETVI” value in the test with SETVI [15] (20 g/ha) and in the test on SETVI [15] (80 g/ha) was 100% each time. The “Pre-emergence action against VERPE” value in the test on VERPE [16] (20 g/ha) and in the test on VERPE [16] (80 g/ha) was 80% throughout.
